EP2508186A1, “Phenoxazinones or phenothiazones as inhibitors of amyloid formation” (Max-Delbrück-Centrum für Molekulare Medizin, priority 2011, dated 2012)
Read-outs that look alike come from different tables or passages of the source.

Legend:
Aβ42 oligomers = target: T1, Aβ42 oligomers (Homo sapiens, UniProt P05067); test: Colorimetric dot blot binding assay on nitrocellulose membrane; conditions: for Kd: 04 0.4-200 µM, 15 min, read-out: apparent dissociation constant
T1 construct: the amyloid-β 1-42 (Aβ42) peptide
T1 sequence (P05067 672-713 limits assumed): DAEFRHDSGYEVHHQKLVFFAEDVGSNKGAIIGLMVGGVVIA
Procedure: 2.2.4. 04 converts small, unstable Aβ42 oligomers into larger SDS-stable protein aggregates. To examine whether 04 converts small Aβ42 oligomers into larger amyloid fibrils, we first tested whether the compound can bind to different types of preformed aggregate species. Peptide preparations highly enriched in Aβ42 monomers (Ehrnhoefer, 2008), spherical oligomers (Ma, 2006) or large amyloid fibrils (Ehrnhoefer, 2008) were produced and incubated with 04 for 15 minutes at room temperature. Then, samples were spotted onto a nitrocellulose membrane and after washing with buffer (non-denaturing conditions) 04 binding was examined. As 04 is a dye and blue in color its binding to amyloid aggregates can be detected colorimetrically (Fig. 3c).
Binding of 04 to Aβ42 oligomers was quantified colorimetrically (Fig. 5).

Aβ42 aggregates = target: T2, Aβ42 aggregates (Homo sapiens, UniProt P05067); test: Dot blot assays of Aβ42 aggregates with antibodies 4G8, 6E10 and B10; type: biochemical; conditions: Aβ42 15 µM
T2 construct: the amyloid-β 1-42 (Aβ42) peptide
T2 sequence (P05067 672-713 limits assumed): as above
Procedure: 2.2.6. 04-generated amyloid fibrils have altered surface properties. We next examined whether 04 treatment influences the morphology of mature amyloid fibrils. […] of chemical compound and the resulting aggregates were analyzed with dot blot assays using the monoclonal antibodies 6E10 and 4G8, which specifically recognize amino acids 4-9 and 18-22 in Aβ42 peptides, respectively (Kim, 1988).
To confirm the observation that 04 alters surface properties of Aβ42 aggregates, we also examined whether 04-generated Aβ42 aggregates can be detected with the conformation specific antibody B10, which preferentially recognizes mature, β-sheet-rich amyloid fibrils and protofibrils, while monomers and low molecular oligomers are less efficiently detected (Habicht, 2007).

Aβ42 = target: T3, Aβ42 (Homo sapiens, UniProt P05067); test: Transmission electron microscopy (TEM/AFM) of Aβ42 aggregate species; type: biochemical
T3 construct: the amyloid-β 1-42 (Aβ42) peptide
T3 sequence (P05067 672-713 limits assumed): as above
Procedure: 2.1.1. Protein aggregation. For aggregation reactions, Aβ42 stock solution (1 mM in DMSO) was diluted in phosphate buffer (100 mM sodium phosphate, 10 mM NaCl, pH 7.4) to 15 µM and incubated in 1.5 ml Eppendorf tubes (Eppendorf, Germany) at 37°C. Generation of soluble Aβ42 oligomers was performed as described (Lambert, 1998). Aβ42 DMSO stock solutions were diluted in Ham's F12 medium without phenol red (Biosource) at a final peptide concentration of 100 µM, with or without test compounds. After brief vortexing, samples were incubated at 4-6°C for 24 h. Alternatively, Aβ42 oligomers were prepared as described in (Ma, 2006) by diluting DMSO stock solution to a final Aβ42 concentration of 110 µM in 10 mM HEPES buffer pH 7.4. Samples were incubated in a glass vial with a micro stir bar at 37°C for 24 h and subsequently centrifuged (Beckman Coulter Microfuge R, rotor F241.5P) at 13,000 rpm.
2.2.2. 04 promotes the assembly of seeding-competent, β-sheet-rich Aβ42 fibrils. To examine the morphology of 04-generated protein aggregates, time course experiments were carried out and evaluated by transmission electron microscopy (TEM). After an incubation period of 4 d, worm-like Aβ42 protofibrils (Walsh, 1999) with a length of ∼30-150 nm and a diameter of -5 nm were predominantly detected in untreated aggregation reactions (Fig. 2c). […] A similar result was obtained after an incubation period of 7 d (Fig. 2c). […] At the same time, the number of oligomeric structures was reduced in 04-treated aggregation reactions (p < 1*10^-4).
We then investigated whether 04 treatment influences the assembly of small Aβ42 oligomers, which are preferentially formed at low temperature in cell-free assays (Lambert, 1998). Aβ42 monomers were incubated for 24 h at 6-8°C in the presence and absence of 04 and formation of oligomers was analyzed by TEM. In agreement with previously published data soluble fractions of untreated aggregation reactions contained large numbers of predominantly spherical Aβ42 oligomers with a diameter of 5-15 nm (Fig. 3e). […] In the presence of 04 a relatively large number of long amyloid fibrils was detected in insoluble fractions, while such structures were not observed in the absence of the chemical compound. However, in pellet fractions of untreated aggregation reactions smaller protofibrillar aggregate species were detected by TEM (Fig. 3e).
Analysis of amyloid fibrils by TEM and AFM also support the antibody binding results. While untreated Aβ42 aggregates in agreement with previously published studies (Bieschke, 2005) are straight fibrils and show a plain, highly regular surface, such a fibrillar morphology was not detected with 04 treated samples (Fig. 7e and f).

Aβ42 peptides [1] = target: T4, Aβ42 peptides (Homo sapiens, UniProt P05067); test: Binding to Aβ42 10-mer peptide array and short peptides; conditions: dot blot, colorimetric, n = 4
T4 construct: made in house; spotted short peptides
Procedure: (§1) 2.2.5. 04 binds preferentially to hydrophobic regions in Aβ42 peptides. To define potential 04 binding regions in Aβ42 peptides an array of 33 synthetic peptides representing the complete Aβ42 sequence was prepared (Beutling, 2008) and probed for an interaction with the chemical compound. Each synthetic peptide was composed of 10 amino acids, which overlapped in sequence with the next peptide by 9 residues.
(§2) We next investigated whether the position of hydrophobic amino acids in the Aβ42 peptide sequence influences 04 binding. Two short peptides containing aromatic residues were synthesized (A: KLVFFAE, aa 16-22 of Aβ42 and B: EFAVFLK, a scrambled version of A) and 04 binding was quantified colorimetrically.

Aβ42 peptides [2] = test: as above; conditions: 04 300 µM, 33 peptides overlapping by 9 residues, colorimetric
Procedure: as §1, §2

[3] = target: T5, A11-reactive amyloid oligomers (Homo sapiens, UniProt P05067); test: Dot blot assay with conformation-specific antibody A11; type: biochemical; conditions: Aβ42 15 µM, 48 h at 37°C, 04 at 1:1 or 5:1 molar ratio
T5 construct: the amyloid-β 1-42 (Aβ42) peptide
T5 sequence (P05067 672-713 limits assumed): as above
Procedure: Finally, we examined the effect of 04 on potentially toxic amyloid oligomers that are recognized by the conformation-specific antibody A11 (Kayed, 2003). Soluble Aβ42 peptides were incubated in the presence and absence of 04 for 48 h at 37°C and the resulting aggregate species were analyzed by dot blot assays.

## O=c1cc2oc3cc(O)c(-c4ccc(O)cc4O)cc3nc-2cc1-c1ccc(O)cc1O [Compound 04, 2,8-bis-(2,4-dihydroxyphenyl)-7-hydroxy-phenoxazin-3-one]
Aβ42 oligomers; Aβ42 oligomers equivalent to monomer concentration 3 µM
  Kd: 50 ± 2 µM
Aβ42 oligomers; Aβ42 oligomers equivalent to monomer concentration 6 µM
  Kd: 25 ± 1 µM
Aβ42 oligomers; Aβ42 oligomers equivalent to monomer concentration 12 µM
  Kd: 3.5 ± 0.1 µM
Aβ42 oligomers; Aβ42 preparations 15 µM, 04 3, 15 and 75 µM, 15 min at room temperature, non-denaturing wash
  04 staining of Aβ42 monomers, oligomers and fibrils: readily stains oligomeric and fibrillar Aβ42 aggregates, while monomers were less efficiently detected
Aβ42 oligomers; cooperative binding model fitted to the oligomer binding data
  Hill coefficient n: 4
Aβ42 aggregates; 48 h at 37°C, increasing concentrations of 04
  B10 antibody binding to Aβ42 aggregates: reduced B10 binding ability
Aβ42 aggregates; 5 d at 37°C with or without 04, no such effect with 6E10
  recognition of Aβ42 aggregates by 4G8 antibody: less efficiently recognized by the 4G8 antibody
Aβ42; Aβ42 15 µM, 04 75 µM, 4 d non-agitated, 37°C
  morphology of amyloid fibrils (TEM and AFM): mostly bent amyloid fibrils with a rough, irregular surface
Aβ42; Aβ42 15 µM, 04 150 µM, after 48 h, p < 1*10^-4
  number of oligomeric structures: reduced
Aβ42; Aβ42 15 µM, 04 150 µM, after 48 h, untreated control 1.3%, p < 1*10^-5
  number of long amyloid fibrils: 27%
Aβ42; Aβ42 15 µM, 04 150 µM, incubation 4 d, untreated: protofibrils ∼30-150 nm
  length of amyloid fibrils: > 500 nm
Aβ42; Aβ42 100 µM, 04 10-fold molar excess, 24 h at 6-8°C in F12 medium
  spherical Aβ42 oligomers in soluble fractions (TEM): only very rarely detected
Aβ42 peptides [1]
  binding to peptide A (KLVFFAE, aa 16-22) and scrambled peptide B (EFAVFLK): readily interacts with peptide A but not with the control peptide B
Aβ42 peptides [2]
  binding to 10-mer peptide array of the Aβ42 sequence: most strongly interacts with Aβ42 peptides, which contain non-polar, hydrophobic amino acids
[3]
  A11-reactive oligomers: detected in the absence but not in the presence of the chemical compound
